One molecule from patent US7271187B2, “Compositions and methods for promoting tissue regeneration” (priority 2000, dated 2007) can be followed below.

The test system of assay [1] is compressive injuries to the spinal cords of rats. Put plainly: Compressive spinal cord injury, closure of cavities. In kind it is in vivo, rat. The note with it: compound in a saline vehicle; vs untreated or saline treated rats. The text has this:
In another study, cavities are induced by compressive injuries to the spinal cords of rats. In the study, rats are either untreated, treated with a saline vehicle, or treated with N-[4-[(4-fluorophenyl)sulfonyl]phenyl]acetamide in a saline vehicle.

Assay [2] concerns mixed embryonic day 18 (E18) rat neural cultures. Description: Embryonic day 18 rat cortical culture, glutamate-killed neurons, immunostaining for neuronal markers. It counts as cell-based. The text has this: The method of the invention is exemplified by a first embodiment wherein administration of a single in vitro dose of N-[4-[(4-fluorophenyl)sulfonyl]phenyl]-acetamide, a compound according to Formula (II), to a population of mixed embryonic day 18 (“E18”) rat neural cultures without living neurons results in a protein expression pattern within the culture that is indicative of development of neuronal cells from progenitor cells. The embryonic neural cultures are first subjected to glutamate excitotoxic exposure sufficient to result in neuronal cell death prior to administration of the compound. Cultures obtained from E18 rat embryos are allowed to mature in vitro for 10 days at which time they are treated with […] glutamate to kill the neurons. Eight days later, cultures are treated with a range of doses of the compound N-[4-[(4-fluorophenyl)sulfonyl]phenyl]acetamide from 0.01 μg/ml to 100 μg/ml. In comparing control cultures and drug treated cultures, an antigenic marker for neuronal progenitor cells, e-NCAM (as detected by immunohistochemical methods), is elevated one week after treatment of the culture with N-[4-[(4-fluorophenyl)sulfonyl]phenyl]-acetamide. […] In contrast, few cells in untreated cultures are observed expressing MAP-II immunoreactivity at 3 weeks post-treatment. […] In control cultures, few cells are observed expressing intense MAP-II and beta-tubulin immunoreactivity. […] This expression pattern represents the normal sequence of events as neuronal cells develop from progenitor cells.
CNS tissue was harvested from embryonic day 18 (E-18) rat pups (Taconic Labs) using sterile technique and was stored in ice cold Hank's Balanced Salt Solution (HBSS-Gibco). Brains were removed from the cranium of 10 embryos, and the meninges removed to expose the underlying cortex. Cortex was isolated from the rest of the brain and stored in ice cold HBSS. After all material was collected, the tissue was minced and trypsinized using 0.1% trypsin (Sigma) for 30 minutes at 37° C. Trypsin action was inhibited by adding 0.5 mg/ml soybean trypsin inhibitor (Gibco). Tissue was rinsed with HBSS and triturated using a flame narrowed Pasteur pipette coated with fetal bovine serum (FBS—Media Tech).
Dissociated cells were counted and plated into 24 well cluster plates in DMEM (MediaTech) plus 10% FBS (Media Tech) at a density of 5×10^5 cells per well. Twenty-four well cluster plates were coated with poly-D-lysine prior to adding cells. Cultures were maintained for 10 days in vitro using a 3-4 day feeding schedule where half the media was removed and replaced with fresh media.
On in vitro day (IVD) 10, glutamate (Gibco) (110 μl of 20 mM added to wells that contained 1 ml of media) was add to all wells except control wells to a final concentration 2 mM. Control wells were fed an equal amount of media minus the L-glutamate. Cultures were maintained for an additional 9 days using a 3-4 feeding schedule. On IVD-18, media was removed and replaced with Neurobasal (Gibco)+B27 supplements (Gibco) and L-glutamine (Media Tech). The next day, IVD-19, N-[4-[(4-fluorophenyl)sulfonyl]phenyl]acetamide dissolved in 2-hydroxypropyl-β-cyclodextrin (Sigma) was added to cultures such that the final concentrations of the compound were either 100 μg/ml, 10 μg/ml, 1 μg/ml and 0.1 μg/ml or 10 μg/ml, 1 μg/ml 0.1 μg/ml and 0.01 μg/ml. Two sets of control wells were included in each experiment. One set of glutamate treated wells received an equal dose of 2-hydroxypropyl-β-cyclodextrin but without N-[4-[(4-fluorophenyl)sulfonyl]phenyl]acetamide. […] After it became apparent that the optimal dose was approximately 0.1 μg/ml to 1 μg/ml N-[4-[(4-fluorophenyl)sulfonyl]phenyl]acetamide, the concentration of drug added to the control wells was reduced to 1 μg/ml.
Cultures were maintained for up to an additional 10 weeks. […]

Assay [3] has as its system passaged astrocytes. Put plainly: Highly enriched passaged astrocyte cultures, immunostaining. It counts as cell-based, rat. The note with it: astrocytes passaged 3 times; untreated controls at a significantly reduced level. The protocol:
The method of the invention is also exemplified by a third embodiment in which astrocytes are passaged 3 times prior to in vitro treatment with the compound and samples derived from the whole cortex were compared to samples enriched for tissue from the subventricular zone.
For some experiments, freshly dissociated cortical cells were plated in poly lysine coated T-75 flasks. Cells were fed twice weekly with DMEM+10% FBS. After reaching confluence, cells were removed from the T-75 flask with typsin/EDTA (Gibco), pelleted and media removed. The cell pellet was resuspended in DMEM+10% FBS and split 1 to 5 into new T-75 flasks. This process was repeated 2 more times. After reaching confluence on the fourth passage, cells were removed from the T-75 flask as describe above and plated on poly lysine coated 24 well cluster plates at a density of 1×10^5 cells per well. Cells were maintained in DMEM+10% FB S until they reached confluence at which point, the media was removed and replaced with NeuralBasal+B27 supplementsN-[4-[(4-fluorophenyl)sulfonyl]phenyl]acetamide was dissolved in 2 hydroxypropyl-β-cyclodextrin and added to cultures at final concentrations ranging from 100 μg/ml to 10 ng/ml. […]

Where [4] appears, read: 4 weeks post treatment, vs control cultures.

`CC(=O)Nc1ccc(S(=O)(=O)c2ccc(F)cc2)cc1` [N-[4-[(4-fluorophenyl)sulfonyl]phenyl]acetamide]: the “extent of closure of the cavity in the spinal cord” value in assay [1] is “most extensive closure of the cavity”. In assay [2] (3 weeks post treatment, vs untreated cultures), the MAP-II expression result was “Low levels of MAP-II expression are also detected at 3 weeks post treatment in a large number of cells”. Also, in assay [2] (setting [4]), the MAP-II immunoreactivity entry is “a large number of cells treated with the compound can be observed expressing intense MAP-II and beta-tubulin immunoreactivity”; the beta-tubulin immunoreactivity result is “a large number of cells treated with the compound can be observed expressing intense MAP-II and beta-tubulin immunoreactivity”. Besides, in assay [2] (6 weeks post treatment, vs untreated cultures), the “phosphorylated neurofilament protein (NF-PO4) immunoreactivity” value was “can be observed in numerous neurites”. Further, in assay [2] (one week after treatment, drug treated vs control cultures, 0.01 μg/ml to 100 μg/ml), the “e-NCAM expression (immunohistochemical)” value was “elevated”. Further, the “expression of Low affinity Neuron Growth Factor Receptor” value in assay [2] (ten weeks post treatment) is “show expression of the Low affinity Neuron Growth Factor Receptor”. In addition, the beta-tubulin expression entry in assay [2] (three weeks post treatment, vs untreated control cultures) was “elevated levels of beta-tubulin expression are detected in large numbers of cells”. The “beta-tubulin positive cells with neuronal morphologies” value in assay [3] is given as “show beta-tubulin positive cells with neuronal morphologies”.
